Data on 25 compounds can be found in patent US7223797B2, “Meldonium salts, method of their preparation and pharmaceutical composition on their basis” (Joint Stock Company “Grindeks”, priority 2003, dated 2007).

Data set [1] in a line: Sample hygroscopicity test: H2O content before and after 24 hours at 100% humidity. In kind it is physicochemical. The note with it: for H2O content after 24 hours maintenance at 100% humidity: closed vessel over water; for H2O content after 24 hours maintenance at 100% humidity / Initial H2O content in the sample: Fischer titration; for Initial H2O content in the sample: before the test; for hygroscopicity (in words): qualitative statement. As for the experimental part:
Sample hygroscopicity was tested by H2O content determination before the test and after 24 hours maintenance at 100% humidity (keeping in a closed vessel over water). On such conditions, Meldonium absorbs 10% water (as to mass increase) during 24 hours. Water content was determined by titration by Fischer's method; in cases of syrup formation water content is determined by sample mass increase.

Data set [2] can be described thus: Thermal / storage stability. It is filed as physicochemical. As to conditions: qualitative statement.
For data set [3] the following is noted: humans; cited from earlier work.
The conditions of data set [4]: rats; cited from earlier work.

Consider `C[N+](C)(C)NCCC(=O)O.C[N+](C)(C)NCCC(=O)O.NCCS(=O)(=O)[O-].NCCS(=O)(=O)[O-].O.O.O` [Meldonium 2-aminoethane sulfonate (taurate; 1:1; ×1.5H2O)], for which, in data set [1], the “H2O content after 24 hours maintenance at 100% humidity” value (“H2O content … at 100% humidity” below) is 17.0854% and the “Initial H2O content in the sample” value is 9,4824%.

Consider `C[N+](C)(C)NCCC(=O)O.NC(CC(=O)O)C(=O)[O-].O.O` [Meldonium L-(+)-aspartate (1:1; ×2H2O)], for which the “Sample mass increase due to absorbed water” value (“Sample mass increase due” below) in data set [1] (24 hours at 100% humidity) worked out at 18%. In data set [1], the “Initial H2O content in the sample” value turned out to be 12.5%.

Take `CN(CC(=O)O)C(=N)N.C[N+](C)(C)NCCC(=O)[O-].O.O.O` [Meldonium creatinate (1:1; ×3H2O)]: in data set [1] (24 hours at 100% humidity), the “Sample mass increase due” value stood at 18%. The “Initial H2O content in the sample” value in data set [1] is 15.8%.

`C[N+](C)(C)NCCC(=O)O.O=C([O-])C(Cl)Cl` [Meldonium dichloroacetate (1:1)]: the “Sample mass increase due” value in data set [1] (24 hours at 100% humidity) came to 12%. In addition, in data set [1], the “Initial H2O content in the sample” value came to 1.17%.

With `C[N+](C)(C)NCCC(=O)[O-].O=C(O)C=CC(=O)O` [Meldonium fumarate (1:1)], in data set [1], the “H2O content … at 100% humidity” value is “remains unchanged” and the “Initial H2O content in the sample” value was determined as 0.18%.

For `C[N+](C)(C)NCCC(=O)[O-].C[N+](C)(C)NCCC(=O)[O-].O=C(O)C=CC(=O)O` [Meldonium fumarate (2:1)], in data set [1], the “H2O content … at 100% humidity” value came to 13.4707% and the “Initial H2O content in the sample” value was determined as 1.5136%.

Turning to `CC(O)C(=O)O.C[N+](C)(C)NCCC(=O)[O-]` [Meldonium lactate (1:1)], the “hygroscopicity (in words)” value in data set [1] is on record as “hygroscopic”.

As to `C[N+](C)(C)NCCC(=O)O.O.O.O=C([O-])CC(O)(CC(=O)[O-])C(=O)[O-].[Mg+2]` [Meldonium magnesium citrate (1:1:1; ×2H2O)], the “State of the sample after maintenance at 100% humidity” value in data set [1] (24 hours at 100% humidity) is “the sample diffused”. Moreover, the “Initial H2O content in the sample” value in data set [1] is on record as 9.45%.

`C[N+](C)(C)NCCC(=O)[O-].O.O.O=C([O-])CCC(=O)[O-].[Mg+2]` [Meldonium magnesium succinate (1:1:1; ×2H2O)]: the “Sample mass increase due” value in data set [1] (24 hours at 100% humidity) is on record as 20%. The “Initial H2O content in the sample” value in data set [1] stood at 10.1215%.

On to `C[N+](C)(C)NCCC(=O)[O-].C[N+](C)(C)NCCC(=O)[O-].O=C(O)C=CC(=O)O` [Meldonium maleate (2:1)], for which the “Sample mass increase due” value in data set [1] (24 hours at 100% humidity) is given as 18%. Further, the “Initial H2O content in the sample” value in data set [1] is 1.3595%.

As to `C[N+](C)(C)NCCC(=O)[O-].O=C(O)C(O)C(O)C(O)C(O)C(=O)O` (stereo not shown) [Meldonium mucate (galactarate; 1:1)], in data set [1], the “H2O content … at 100% humidity” value stood at 12.8% and the “Initial H2O content in the sample” value is 1.98%.

Regarding `C[N+](C)(C)NCCC(=O)[O-].C[N+](C)(C)NCCC(=O)[O-].O.O=C(O)C(O)C(O)C(O)C(O)C(=O)O` (stereo not shown) [Meldonium mucate (galactarate; 2:1; ×H2O)], in data set [1], the “H2O content … at 100% humidity” value is listed as 7.6830% and the “Initial H2O content in the sample” value is 3.0414%.

Take `C[N+](C)(C)NCCC(=O)[O-]` [Meldonium orotate (1:1)]: in data set [1], the “H2O content … at 100% humidity” value is “remains unchanged” and the “Initial H2O content in the sample” value is 0.3919%.

Consider `C[N+](C)(C)NCCC(=O)O.O=C([O-])C(=O)O` [Meldonium oxalate (1:1)], for which, in data set [1], the “H2O content … at 100% humidity” value is given as 3.1211% and the “Initial H2O content in the sample” value was 0.1661%.

`C[N+](C)(C)NCCC(=O)O.O.O=C([O-])c1cc2ccccc2c(Cc2c(O)c(C(=O)O)cc3ccccc23)c1O` [Meldonium pamoate (1:1; ×H2O)]: the “Sample mass increase due” value in data set [1] (24 hours at 100% humidity) is listed as 9%. For the same compound, the “Initial H2O content in the sample” value in data set [1] came to 1.71%.

As to `C[N+](C)(C)NCCC(=O)O.O=P([O-])(O)O` [Meldonium phosphate (1:1)], in data set [1], the “H2O content … at 100% humidity” value is on record as “remains unchanged” and the “Initial H2O content in the sample” value is recorded as 0.0762%.

Consider `C[N+](C)(C)NCCC(=O)O.O=S(=O)([O-])O` [Meldonium sulfate (1:1)], for which the “Sample mass increase due” value in data set [1] (24 hours at 100% humidity) came out at 20%. The “Initial H2O content in the sample” value in data set [1] is 1.4189%.

Take `C[N+](C)(C)NCCC(=O)O.C[N+](C)(C)NCCC(=O)O.O=S(=O)([O-])[O-]` [Meldonium sulfate (2:1)]: the “Sample mass increase due” value in data set [1] (24 hours at 100% humidity) is on record as 11.8%. The “Initial H2O content in the sample” value in data set [1] came to 0.313%.

As to `C[N+](C)(C)NCCC(=O)[O-]` [Meldonium, 3-(2,2,2-trimethylhydrazinium) propionate], the “stability (in words)” value in data set [2] is “not very stable”. In addition, the half-elimination period in data set [3] was 4 to 10 h. Besides, the “half-elimination period compared with humans” value in data set [4] is recorded as “longer”.

Consider `C[N+](C)(C)NCCC(=O)O.O=C([O-])C=CC(=O)O` [Meldoniuma maleate (1:1)], for which, in data set [1], the “H2O content … at 100% humidity” value worked out at 4.6844% and the “Initial H2O content in the sample” value was found to be 0.387%.

As to `C[N+](C)(C)NCCC(=O)[O-]` [anhydrous form of Meldonium, reference compound], the “hygroscopicity (in words)” value in data set [1] is “extremely hygroscopic”. Moreover, in data set [2], the “stability (in words)” value is “unstable”.

Consider `Cl` [hydrogen chloride, reference compound], for which, in data set [1], the “hygroscopicity (in words)” value was “hygroscopic”.

Consider Meldonium sulfate, for which, in data set [1], the “hygroscopicity (in words)” value is recorded as “hygroscopic”.

In the case of acetate [reference compound], the “hygroscopicity (in words)” value in data set [1] was “hygroscopic”.

In the case of citrate, the “hygroscopicity (in words)” value in data set [1] is given as “hygroscopic”.
